Data from patent US6479067B2, “Methods for treating ovarian cancer, poly (phosphoester) compositions, and biodegradable articles for same” (Guilford Pharmaceuticals, Inc., priority 1999, dated 2002).
Structures can show the parent of a compound that is named as a salt. Where two headings read alike, the source gives them in different places.

What was measured:
[1] = Subcutaneous injection: implant site macrophage counts and irritation scores; assay type: in vivo, male S-D rats; conditions: s.c.
[2] = for Paclitaxel Concentration (plasma): 120 mg/kg i.p.
[3] = tested on: melanoma cell line B16/F10
[4] = 0.7 ml (polymers 89 mg/kg), 7 Day
[5] = 0.7 ml (polymers 89 mg/kg), 14 Day
[6] = 0.7 ml (polymers 89 mg/kg), 31 Day
[7] = 2.0 ml (polymers 267 mg/kg), 7 Day
[8] = 2.0 ml (polymers 267 mg/kg), 14 Day
[9] = 2.0 ml (polymers 267 mg/kg), 31 Day
[10] = 28 days, formulation injected on Day 3
[11] = 28 days, formulation injected on Day 7
[12] = 42 days, formulation injected on Day 3
[13] = 42 days, formulation injected on Day 7

CC(=O)O [Acetic Acid]
# = Mean count (implant site macrophages) [1, 4]: 208
Irritation [1, 4]: Mild (200-400 Mild Irritation)
# = Mean count (implant site macrophages) [1, 5]: 166
Irritation [1, 5]: Sl. (0-200 Slight Irritation)
# = Mean count (implant site macrophages) [1, 6]: 20
Irritation [1, 6]: Sl. (0-200 Slight Irritation)
# = Mean count (implant site macrophages) [1, 7]: 267
Irritation [1, 7]: Mild (200-400 Mild Irritation)
# = Mean count (implant site macrophages) [1, 8]: 334
Irritation [1, 8]: Mild (200-400 Mild Irritation)
# = Mean count (implant site macrophages) [1, 9]: 32
Irritation [1, 9]: Sl. (0-200 Slight Irritation)

CC(=O)O[C@H]1C(=O)[C@@]2(C)[C@H]([C@H](OC(=O)c3ccccc3)[C@]3(O)C[C@H](OC(=O)[C@H](O)[C@@H](NC(=O)c4ccccc4)c4ccccc4)C(C)=C1C3(C)C)[C@]1(OC(C)=O)CO[C@@H]1C[C@@H]2O [Paclitaxel w/o polymer, paclitaxel]
Paclitaxel Concentration (plasma) ([2]; 14 days): Animal died
Paclitaxel Concentration (plasma) ([2]; 28 days): Animal died
Tolerability ([2]; comparable dose given intraperitoneally): could not tolerate the dose

COc1cccc2c1C(=O)c1c(O)c3c(c(O)c1C2=O)C[C@@](O)(C(=O)CO)C[C@@H]3O[C@H]1C[C@H](N)[C@H](O)[C@H](C)O1 [Bolus Dox, doxorubicin hydrochloride]
Number of Mice Survived [3, 10]: 8
Tumor Volume (mm^3 ± SEM) After Tumor Injection [3, 10]: 1218.9 ± 304.1 mm^3
Number of Mice Survived [3, 11]: 8
Tumor Volume (mm^3 ± SEM) After Tumor Injection [3, 11]: 1661.2 ± 301.8 mm^3
Number of Mice Survived [3, 12]: 5
Tumor Volume (mm^3 ± SEM) After Tumor Injection [3, 12]: 3942.5 ± 1818 mm^3
Number of Mice Survived [3, 13]: 3
Tumor Volume (mm^3 ± SEM) After Tumor Injection [3, 13]: 4394.3 ± 741.3 mm^3
Early death after injection ([3]; about 3-4 days after the injections): did not produce early death
